Measurements reported in patent publication US10508109B2 (priority 2015, dated 2019).
pIC50: −log10 of the molar value. Structures can show the parent of a compound that is named as a salt. Where two headings read alike, the source gives them in different places.

How the values were obtained:
[1] = target: SUV39H2 (Homo sapiens (Human), UniProt Q9H5I1); test: biochemical; type: biochemical; settings: 3H-SAM 100 nM, H3 Histone Peptide 350 nM, room temperature 3 hours
In short: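 Human SUV39H2, at a lot-specific concentration set by specific activity, was incubated with test compounds for 3 h at room temperature, then stopped with streptavidin SPA beads (50 μg/well final).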

[2] = tested on: A549; test: Cell-based assay, anti-proliferative activity (Cell Counting Kit-8, 72 hours); settings: Homo sapiens, read-out: A549 IC50
In short: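 IC50 values come from growth read-outs taken after the cells' exposure to each candidate inhibitor. Cells had been plated in 96-well microtiter plates beforehand.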

[3] = A549 cells, 72 hours exposure, Cell Counting Kit-8

SUV39H2, sequence (Q9H5I1 whole entry): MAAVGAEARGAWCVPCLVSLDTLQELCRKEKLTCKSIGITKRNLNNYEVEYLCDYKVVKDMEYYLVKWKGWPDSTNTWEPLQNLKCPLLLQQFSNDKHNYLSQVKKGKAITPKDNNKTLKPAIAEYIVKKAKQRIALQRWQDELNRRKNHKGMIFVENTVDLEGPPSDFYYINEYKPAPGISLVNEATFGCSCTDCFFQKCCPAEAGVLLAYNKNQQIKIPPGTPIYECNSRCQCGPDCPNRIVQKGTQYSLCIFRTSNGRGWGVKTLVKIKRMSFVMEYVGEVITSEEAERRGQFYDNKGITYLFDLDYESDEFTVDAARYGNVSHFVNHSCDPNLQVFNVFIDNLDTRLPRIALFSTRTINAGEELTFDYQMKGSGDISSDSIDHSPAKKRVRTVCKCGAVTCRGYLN

SMILES	pIC50 [1]	pIC50 [2, 3]	pIC50 ([2]; A549, 72 h)
CNc1ncnc(N2CCN(c3ccn4cc(-c5cc(Cl)c(OC)cc5OC)nc4c3)CC2)n1 [Example 451, 4-(4-(2-(5-chloro-2,4-dimethoxyphenyl)imidazo[1,2-a]pyridin-7-yl)piperazin-1-yl)-N-methyl-1,3,5-triazin-2-amine]	7.77	6.34	–
COc1cc(OC(F)F)c(-c2cn3ccc(N4CC[C@H](NC(=O)OC(C)(C)C)C4)cc3n2)cc1Cl [Example 408, (S)-tert-butyl (1-(2-(5-chloro-2-(difluoromethoxy)-4-methoxyphenyl)imidazo[1,2-a]pyridine-7-yl)pyrrolidin-3-yl)carbamate]	7.90	6.25	–
COc1cc(OC)c(-c2cn3ccc(N[C@H]4CC[C@H](Nc5nccc(N6CCOCC6)n5)CC4)cc3n2)cc1Cl [Example 406, (1r,4r)-N^1-(2-(5-chloro-2,4-dimethoxyphenyl)imidazo[1,2-a]pyridin-7-yl)-N^4-(4-morpholinopyrimidin-2-yl)cyclohexane-1,4-diamine]	7.43	6.13	–
COc1cc(OC)c(-c2cn3ccc(N4CCC(C(=O)NC5CCN(C(=O)OC(C)(C)C)CC5)CC4)cc3n2)cc1Cl [Example 460, tert-butyl 4-(1-(2-(5-chloro-2,4-dimethoxyphenyl)imidazo[1,2-a]pyridin-7-yl)piperidine-4-carboxamido)piperidine-1-carboxylate]	7.68	6.16	–
COc1cc(OCCCN(C)C)c(-c2cn3ccc(N4CC[C@H](N)C4)cc3n2)cc1Cl [Example 432, (S)-1-(2-(5-chloro-2-(3-(dimethylamino)propoxy)-4-methoxyphenyl)imidazo[1,2-a]pyridin-7-yl)pyrrolidin-3-amine]	7.50	6.15	–
COc1cc(OC)c(-c2cn3ccc(N4CCCN(c5ncccn5)CC4)cc3n2)cc1Cl [Example 368, 2-(5-chloro-2,4-dimethoxyphenyl)-7-(4-(pyrimidin-2-yl)-1,4-diazepan-1-yl)imidazo[1,2-a]pyridine]	7.80	6.00	–
CNC1CCN(c2cnc(N3CCN(c4ccn5cc(-c6cc(Cl)c(OC)cc6OC)nc5c4)CC3)nc2)CC1 [Example 458, 1-(2-(4-(2-(5-chloro-2,4-dimethoxyphenyl)imidazo[1,2-a]pyridin-7-yl)piperazin-1-yl)pyrimidin-5-yl)-N-methylpiperidin-4-amine]	7.76	6.38	–
COc1cc(OC)c(-c2cn3ccc(N4CC[C@H](NCc5ccc(N(C)C(=O)OC(C)(C)C)cc5)C4)cc3n2)cc1Cl [Example 394, (S)-tert-butyl (4-(((1-(2-(5-chloro-2,4-dimethoxyphenyl)imidazo[1,2-a]pyridin-7-yl)pyrrolidin-3-yl)amino)methyl)phenyl)(methyl)carbamate]	7.99	6.10	–
COc1cc(OC)c(-c2cn3ccc(N4CCN(c5ccncc5F)CC4)cc3n2)cc1Cl [Example 322, 2-(5-chloro-2,4-dimethoxyphenyl)-7-(4-(3-fluoropyridin-4-yl)piperazin-1-yl)imidazo[1,2-a]pyridine]	7.24	6.25	–
COc1cc(OC)c(-c2cn3ccc(N[C@H]4C[C@H]5CC[C@@H](C4)N5C(=O)OC(C)C)cc3n2)cc1Cl [Example 391, (1R,3r,5S)-isopropyl 3-((2-(5-chloro-2,4-dimethoxyphenyl)imidazo[1,2-a]pyridin-7-yl)amino)-8-azabicyclo[3.2.1]octane-8-carboxylate]	7.10	6.00	–
COc1cc(OC)c(-c2cn3ccc(N4CCN(c5nc(N)nc(N6CCCC6)n5)CC4)cc3n2)cc1Cl [Example 431, 4-(4-(2-(5-chloro-2,4-dimethoxyphenyl)imidazo[1,2-a]pyridin-7-yl)piperazin-1-yl)-6-(pyrrolidin-1-yl)-1,3,5-triazin-2-amine]	7.05	6.12	–
COc1cc(OC)c(-c2cn3ccc(N4CCN(Cc5ccncc5Br)CC4)cc3n2)cc1Cl [Example 345, 7-(4-((3-bromopyridin-4-yl)methyl)piperazin-1-yl)-2-(5-chloro-2,4-dimethoxyphenyl)imidazo[1,2-a]pyridine]	7.45	6.07	–
COc1cc(OC)c(-c2cn3ccc(N4CC[C@H](NCc5ccnc(F)c5)C4)cc3n2)cc1Cl [Example 412, (S)-1-(2-(5-chloro-2,4-dimethoxyphenyl)imidazo[1,2-a]pyridin-7-yl)-N-((2-fluoropyridin-4-yl)methyl)pyrrolidin-3-amine dihydrochloride]	8.17	–	6.07
COc1cc(OC)c(-c2cn3ccc(N[C@H]4CC[C@@H](NCc5ccc(C#N)cc5)CC4)cc3n2)cc1Cl [Example 403, 4-((((1s,4s)-4-((2-(5-chloro-2,4-dimethoxyphenyl)imidazo[1,2-a]pyridine-7-yl)amino)cyclohexyl)amino)methyl) benzonitrile]	7.82	6.12	–
COc1cc(OC)c(-c2cn3ccc(N4CCN(C(=O)c5ccccc5O)CC4)cc3n2)cc1Cl [Example 314, (4-(2-(5-chloro-2,4-dimethoxyphenyl)imidazo[1,2-a]pyridin-7-yl)piperazin-1-yl)(2-hydroxyphenyl)methanone]	8.14	5.77	–
COc1cc(OC)c(-c2cn3ccc(N4CCN(c5ncc(N6CCC(N)CC6)cn5)CC4)cc3n2)cc1Cl [Example 441, 1-(2-(4-(2-(5-chloro-2,4-dimethoxyphenyl)imidazo[1,2-a]pyridin-7-yl)piperazin-1-yl)pyrimidin-5-yl)piperidin-4-amine]	8.30	6.27	–
COc1cc(OC)c(-c2cn3ccc(N4CCN(c5ncc([N+](=O)[O-])cc5C#N)CC4)cc3n2)cc1Cl [Example 349, 2-(4-(2-(5-chloro-2,4-dimethoxyphenyl)imidazo[1,2-a]pyridin-7-yl)piperazin-1-yl)-5-nitronicotinonitrile]	7.83	6.21	–
COc1cc(OC)c(-c2cn3ccc(N4CCN(c5cnc(N6CCC(N)C6)nc5)CC4)cc3n2)cc1Cl (centres unmarked) [Example 378, 1-(5-(4-(2-(5-chloro-2,4-dimethoxyphenyl)imidazo[1,2-a]pyridin-7-yl)piperazin-1-yl)pyrimidin-2-yl)pyrrolidin-3-amine dihydrochloride]	7.64	–	6.17
CNc1ncc(N2CCN(c3ccn4cc(-c5cc(Cl)c(OC)cc5OC)nc4c3)CC2)cn1 [Example 340, 5-(4-(2-(5-chloro-2,4-dimethoxyphenyl)imidazo[1,2-a]pyridin-7-yl)piperazin-1-yl)-N-methylpyrimidin-2-amine trifluoroacetate]	7.77	6.16	–
COc1cc(OC)c(-c2cn3ccc(N4CCN(c5ccnc(NC6CC6)n5)CC4)cc3n2)cc1Cl [Example 331, 4-(4-(2-(5-chloro-2,4-dimethoxyphenyl)imidazo[1,2-a]pyridin-7-yl)piperazin-1-yl)-N-cyclopropylpyrimidin-2-amine]	7.24	6.09	–
COc1cc(OC)c(-c2cn3ccc(N[C@H]4CC[C@H](NCc5ccc(C)cc5)CC4)cc3n2)cc1Cl [Example 328, (1r,4r)-N^1-(2-(5-chloro-2,4-dimethoxyphenyl)imidazo[1,2-a]pyridin-7-yl)-N^4-(4-methylbenzyl)cyclohexane-1,4-diamine (2,2,2-trifluoroacetate)]	7.22	6.44	–
COc1cc(OC)c(-c2cn3ccc(N4CCN(c5nccc(N6CCN(C(=O)Cc7ccccc7)CC6)n5)CC4)cc3n2)cc1Cl [Example 382, 1-(4-(2-(4-(2-(5-chloro-2,4-dimethoxyphenyl)imidazo[1,2-a]pyridin-7-yl)piperazin-1-yl)pyrimidin-4-yl)piperazin-1-yl)-2-phenylethanone dihydrochloride]	7.50	–	6.17
COc1cc(OC)c(-c2cn3ccc(N4CCN(c5ccnc(N6CCC(CO)C6)n5)CC4)cc3n2)cc1Cl (centres unmarked) [Example 367, (1-(4-(4-(2-(5-chloro-2,4-dimethoxyphenyl)imidazo[1,2-a]pyridine-7-yl)piperazin-1-yl)pyrimidin-2-yl)pyrrolidin-3-yl)methanol]	7.58	6.01	–
COc1cc(OC)c(-c2cn3ccc(N4CCN(c5ccnc(N6CCN(C)CC6)n5)CC4)cc3n2)cc1Cl [Example 351, 2-(5-chloro-2,4-dimethoxyphenyl)-7-(4-(2-(4-methylpiperazin-1-yl)pyrimidin-4-yl)piperazin-1-yl)imidazo[1,2-a]pyridine]	7.54	6.07	–
CNC1CCN(c2cc(N3CCN(c4ccn5cc(-c6cc(Cl)c(OC)cc6OC)nc5c4)CC3)ncn2)C1 (centres unmarked) [Example 424, 1-(6-(4-(2-(5-chloro-2,4-dimethoxyphenyl)imidazo[1,2-a]pyridin-7-yl)piperazin-1-yl)pyrimidin-4-yl)-N-methylpyrrolidin-3-amine]	7.94	6.15	–
COc1cc(OC)c(-c2cn3ccc(N4CCN(c5ccnc(N6CCCC(O)C6)n5)CC4)cc3n2)cc1Cl (centres unmarked) [Example 357, 1-(4-(4-(2-(5-chloro-2,4-dimethoxyphenyl)imidazo[1,2-a]pyridin-7-yl)piperazin-1-yl)pyrimidin-2-yl)piperidin-3-ol]	7.59	6.22	–
COc1cc(OC)c(-c2cn3ccc(N[C@H]4CC[C@@H](NC(=O)c5ccccc5O)CC4)cc3n2)cc1Cl [Example 392, N-(cis-4-((2-(5-chloro-2,4-dimethoxyphenyl)imidazo[1,2-a]pyridin-7-yl)amino)cyclohexyl)-2-hydroxybenzamide trifluoroacetate]	7.28	6.17	–
COc1cc(OC)c(-c2cn3ccc(N4CCN(c5cc(N(C)C)nc(N)n5)CC4)cc3n2)cc1Cl [Example 389, 6-(4-(2-(5-chloro-2,4-dimethoxyphenyl)imidazo[1,2-a]pyridin-7-yl)piperazin-1-yl)-N^4,N^4-dimethylpyrimidine-2,4-diamine dihydrochloride]	7.41	–	6.12
